According to US9107411B2, “Indolecarboxamides and benzimidazolecarboxamides as insecticides and acaricides” (BAYER INTELLECTUAL PROPERTY GMBH, priority 2011, dated 2015):

Tests used:
Phaedon cochleariae = assay: Phaedon test (PHAECO spray treatment); assay type: in vivo; conditions: Chinese cabbage leaf discs, after 7 days
Procedure: Phaedon Test ([…] Spray Treatment) Solvent: 78.0 parts by weight of acetone • • 1.5 parts by weight of dimethylformamide Emulsifier: 0.5 part by weight of alkylaryl polyglycol ether To produce an appropriate active ingredient formulation, 1 part by weight of active ingredient is mixed with the stated amounts of solvent and emulsifier, and the concentrate is diluted with emulsifier-containing water to the desired concentration. Leaf discs of Chinese cabbage (Brassica pekinensis) are sprayed with an active ingredient formulation of the desired concentration and, after drying, populated with larvae of the mustard beetle (Phaedon cochleariae). After 7 days, the efficacy in % is determined. 100% means that all of the beetle larvae have been killed; 0% means that none of the beetle larvae have been killed.

Spodoptera frugiperda = Spodoptera frugiperda test (SPODFR spray treatment); assay type: in vivo; conditions: maize leaf discs, after 7 days
Procedure: Spodoptera frugiperda Test (SPODFR Spray Treatment) Solvent: 78.0 parts by weight of acetone • • 1.5 parts by weight of dimethylformamide To produce an appropriate active ingredient formulation, 1 part by weight of active ingredient is mixed with the stated amounts of solvent and emulsifier, and the concentrate is diluted with emulsifier-containing water to the desired concentration. Leaf discs of maize (Zea mays) are sprayed with an active ingredient formulation of the desired concentration and, after drying, populated with caterpillars of the armyworm (Spodoptera frugiperda). After 7 days, the efficacy in % is determined 100% means that all of the caterpillars have been killed; 0% means that none of the caterpillars have been killed.

logP (HPLC-MS) = assay type: physicochemical; conditions: HPLC, reversed-phase column (C18), 43° C.
[1] = acidic range pH 2.7, acetonitrile (0.1% formic acid)/water gradient, calibration with unbranched alkan-2-ones
[2] = acidic range pH 2.7, EEC directive 79/831 Annex V.A8, two values = both regioisomers (G = N)

Row | Compound | log p (logP (HPLC-MS); [1]) | log p (logP (HPLC-MS); [2]) | efficacy in % (Phaedon cochleariae; application rate 100 g/ha) | efficacy in % (Spodoptera frugiperda; application rate 100 g/ha) | efficacy in % (Phaedon cochleariae; application rate 500 g/ha) | efficacy in % (Spodoptera frugiperda; application rate 500 g/ha)
1 | CCC(=O)NCc1cc2cc(C(=O)NC(c3cccc(C(F)(F)F)c3)C(F)(F)F)n(CC)c2cc1Cl (centres unmarked) [Compound 25] | 4.06 | – | 100% | 100% | – | –
2 | CCn1c(C(=O)NC(c2cccc(C(F)(F)F)c2)C(F)(F)F)cc2cc(C(=O)NC3(C#N)CC3)c(C(C)C)cc21 (centres unmarked) [Compound 319] | – | 4.08 | 100% | 100% | – | –
3 | Cn1c(C(=O)NC(c2cccc(C(F)(F)F)c2)C(F)(F)F)nc2cc(C(=O)NC3CC3)c(Cl)cc21 (centres unmarked) [Compound 1] | 3.4 | – | – | – | 100% | 100%
4 | C=CCN(C(=O)c1cc2nc(C(=O)NC(c3cccc(C(F)(F)F)c3)C(F)(F)F)n(CC=C)c2cc1Cl)C1CC1 (centres unmarked) [Compound 309] | – | 4.74 | – | – | 83% | 100%
5 | CCn1c(C(=O)NC(c2cccc(C(F)(F)F)c2)C(F)(F)F)cc2cc(CNC(=O)C3CC3)c(Cl)cc21 (centres unmarked) [Compound 24] | 4.19 | – | 100% | 100% | – | –
6 | Cc1cc2c(cc1C(=O)NC1(C#N)CC1)cc(C(=O)NC(c1cccc(C(F)(F)F)c1)C(F)(F)F)n2C (centres unmarked) [Compound 196] | 3.49 | – | 100% | 100% | – | –
7 | CCNC(=O)c1cc2cc(C(=O)NC(c3ccc(F)c(C(F)(F)F)c3)C(F)(F)F)n(CC)c2cc1Cl (centres unmarked) [Compound 17] | 3.91 | – | 100% | 100% | – | –
8 | CCn1c(C(=O)NC(c2ccc(F)c(C(F)(F)F)c2)C(F)(F)F)cc2cc(C(=O)NC(CF)CF)c(C)cc21 (centres unmarked) [Compound 306] | – | 4.03 | 100% | 83% | – | –
9 | CCn1c(C(=O)NC(c2ccc3c(c2)OC(F)(F)O3)C(F)(F)F)cc2cc(C(=O)NC3CC3)c(C)cc21 (centres unmarked) [Compound 307] | – | 3.81 | 100% | 100% | – | –
10 | C#CCn1c(C(=O)NC(c2cccc(C(F)(F)F)c2)C(F)(F)F)nc2cc(C(=O)NC3CC3)c(Cl)cc21 (centres unmarked) [Compound 91] | 3.55 | – | 100% | 100% | – | –
11 | O=C(NC1CC1)c1cc2nc(C(=O)NC(c3cccc(C(F)(F)F)c3)C(F)(F)F)n(CC3CC3)c2cc1Cl (centres unmarked) [Compound 322] | – | – | 100% | 100% | – | –

More lines, main results first:

Row | log p (logP (HPLC-MS); [1]) | log p (logP (HPLC-MS); [2]) | Compound | efficacy in % (Phaedon cochleariae; application rate 100 g/ha) | efficacy in % (Spodoptera frugiperda; application rate 100 g/ha) | efficacy in % (Phaedon cochleariae; application rate 500 g/ha) | efficacy in % (Spodoptera frugiperda; application rate 500 g/ha)
12 | – | 4.13 | CC(C)Cn1c(C(=O)NC(c2cccc(C(F)(F)F)c2)C(F)(F)F)cc2cc(C(=O)NC3(C#N)CC3)c(Cl)cc21 (centres unmarked) [Compound 299] | 100% | 100% | – | –
13 | 4.45 | – | CCn1c(C(=O)NC(c2cccc(C(F)(F)F)c2)C(F)(F)F)cc2cc(C(=O)NC3(CC)CC3)c(Cl)cc21 (centres unmarked) [Compound 30] | 100% | 83% | – | –
14 | 4.45 | – | CCn1c(C(=O)NC(c2cccc(C(F)(F)F)c2)C(F)(F)F)cc2cc(C(=O)NC3(C4CC4)CC3)c(Cl)cc21 (centres unmarked) [Compound 29] | 100% | 83% | – | –
15 | 3.99 | – | CCOC(=O)C1(NC(=O)c2cc3cc(C(=O)NC(c4cccc(C(F)(F)F)c4)C(F)(F)F)n(CC)c3cc2Cl)CC1 (centres unmarked) [Compound 34] | 100% | 83% | – | –
16 | 4.30 | – | CCn1c(C(=O)NC(c2cccc(C(F)(F)F)c2)C(F)(F)F)cc2cc(C(=O)NC3(C(F)(F)F)CC3)c(Cl)cc21 (centres unmarked) [Compound 267] | 100% | 100% | – | –
17 | 3.55 | – | Cn1c(C(=O)NC(c2cccc(C(F)(F)F)c2)C(F)(F)F)cc2cc(C(=O)NC3(C#N)CC3)c(Cl)cc21 (centres unmarked) [Compound 44] | 100% | 100% | – | –
18 | 4.19 | – | CCOC1(NC(=O)c2cc3cc(C(=O)NC(c4cccc(C(F)(F)F)c4)C(F)(F)F)n(CC)c3cc2Cl)CC1 (centres unmarked) [Compound 31] | 100% | 100% | – | –
